Data: patent US6703397B2, “Pyrimidinyl methyl indole derivatives with antibacterial activity” (Basilea Pharmaceutica AG, priority 2000, dated 2004)
Values after ≈ are worked out from the molar mass of the structure shown. Like-named read-outs stand apart in the source and are kept apart here.

Tests used:
[1] = test system: Streptococcus pneumoniae ATCC 49619; assay: MIC against Streptococcus pneumoniae ATCC 49619 (trimethoprim- and penicillin-susceptible reference strain); assay type: cell-based
Description: The following Tables 1 and 2 contain inhibitory concentrations determined in the above test for representative members of the class of compound defined by formula I. The following microorganisms were tested: Col. 1: […]

[2] = test system: Streptococcus pneumoniae 1/1; assay: MIC against Streptococcus pneumoniae 1/1 (trimethoprim- and penicillin-resistant clinical isolate, serotype 6); assay type: cell-based
Description: The following Tables 1 and 2 contain inhibitory concentrations determined in the above test for representative members of the class of compound defined by formula I. The following microorganisms were tested: […]
Col. 2: MIC Spn1/1; μg/ml (Streptococcus pneumoniae 1/1, Trimethoprim- and Penicillin-resistant, Serotype 6; clinical isolate, stored at −80° C.). Lit.: H. Locher et al., Can. J. Infect. Dis. 6: Suppl. C, p 469C.

[3] = biological target: purified DHFR of strain Spn1/1 (Streptococcus pneumoniae serotype 4, UniProt Q54801, E20D/I100L/L135F/P70S/Q81H); assay: biochemical
Sequence of purified DHFR of strain Spn1/1 (Q54801 whole entry E20D/P70S/Q81H/I100L/L135F): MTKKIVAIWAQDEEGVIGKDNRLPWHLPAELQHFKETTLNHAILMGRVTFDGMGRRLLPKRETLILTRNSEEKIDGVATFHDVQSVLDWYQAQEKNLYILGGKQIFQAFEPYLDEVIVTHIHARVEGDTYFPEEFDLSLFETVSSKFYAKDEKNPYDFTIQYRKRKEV
Description: Col. 3: DHFR Spn1/1; μM)—the IC50-values in μM against the purified DHFR of the above strain Spn1/1; of Streptococcus pneumoniae.

[4] = ATCC49619, Streptococcus pneumoniae ATCC 49619, trimethoprim- and penicillin-susceptible, read-out: Spn 49619 MIC
[5] = Streptococcus pneumoniae 1/1, trimethoprim- and penicillin-resistant, serotype 6, read-out: Spn 1/1 MIC

`CCn1cc(CN2CCOCC2)c2c(OS(=O)(=O)CC3CC3)cc(Cc3cnc(N)nc3N)cc21` [Example 10e, Cyclopropyl-methanesulfonic acid 6-(2,4-diamino-pyrimidin-5-ylmethyl)-1-ethyl-3-morpholin-4-ylmethyl-1H-indol-4-yl ester] showed an MIC [1, 4] of 0.125 µg/mL (≈ 0.25 µM), an MIC [2, 5] of 4 µg/mL (≈ 7.99 µM) and an IC50 [3] of 4.8 nM.

For `CCn1cc(C=O)c2c(OS(=O)(=O)C(C)C)cc(Cc3cnc(N)nc3N)cc21` [Example 11, Propane-2-sulfonic acid 6-(2,4-diamino-pyrimidin-5-ylmethyl)-1-ethyl-3-formyl-1H-indol-4-yl ester], the MIC ([1]; Streptococcus pneumoniae, ATCC49619, read-out: Spn 49619 MIC) was 0.25 µg/mL (≈ 0.599 µM), the MIC ([2]; Streptococcus pneumoniae, 1/1, read-out: Spn 1/1 MIC) was > 8 µg/mL and the IC50 [3] was 93 nM.

Work on `CCn1cc(C)c2c(OS(=O)(=O)C(C)C)cc(Cc3cnc(N)nc3N)cc21` [Example 12a, Propane-2-sulfonic acid 6-(2,4-diamino-pyrimidin-5-ylmethyl)-1-ethyl-3-methyl-1H-indol-4-yl ester] yielded an MIC [1, 4] of 0.125 µg/mL (≈ 0.31 µM), an MIC [2, 5] of 4 µg/mL (≈ 9.91 µM) and an IC50 [3] of 15 nM.

`CCn1cc(C)c2c(OS(=O)(=O)CC3CC3)cc(Cc3cnc(N)nc3N)cc21` [Example 12b, Cyclopropyl-methanesulfonic acid 6-(2,4-diamino-pyrimidin-5-ylmethyl)-1-ethyl-3-methyl-1H-indol-4-yl ester] was tested, and the MIC [1, 4] was ≤ 0.015 µg/mL, the MIC [2, 5] was 4 µg/mL (≈ 9.63 µM) and the IC50 [3] was 3.7 nM.

In the case of `CCn1cc(Br)c2c(OCC3CC3)cc(Cc3cnc(N)nc3N)cc21` [Example 13, 5-(3-Bromo-4-cyclopropylmethoxy-1-ethyl-1H-indol-6-ylmethyl)-pyrimidine-2,4-diamine], the MIC [1, 4] is reported as 0.125 µg/mL (≈ 0.3 µM), the MIC [2, 5] is reported as 4 µg/mL (≈ 9.61 µM) and the IC50 [3] is reported as 42 nM.

`CCOc1cc(Cc2cnc(N)nc2N)cc2c1cc(C)n2CC` [Example 15a, 5-(4-Ethoxy-1-ethyl-2-methyl-1H-indol-6-ylmethyl)-pyrimidine-2,4-diamine] was tested, and the MIC [1, 4] was 0.25 µg/mL (≈ 0.768 µM), the MIC [2, 5] was 8 µg/mL (≈ 24.6 µM) and the IC50 [3] was 56 nM.

For `CCn1c(C)cc2c(OCC3CC3)cc(Cc3cnc(N)nc3N)cc21` [Example 15b, 5-(4-Cyclopropylmethoxy-1-ethyl-2-methyl-1H-indol-6-ylmethyl)-pyrimidine-2,4-diamine], the MIC [1, 4] was 0.5 µg/mL (≈ 1.42 µM), the MIC [2, 5] was 8 µg/mL (≈ 22.8 µM) and the IC50 [3] was 20 nM.

Work on `CCOc1cc(Cc2cnc(N)nc2N)cc2c1c(-c1cccc(OC)c1)cn2CC` [Example 17a, 5-[4-Ethoxy-1-ethyl-3-(3-methoxy-phenyl)-1H-indol-6-ylmethyl]-pyrimidine-2,4-diamine] yielded an MIC [1, 4] of 0.5 µg/mL (≈ 1.2 µM), an MIC [2, 5] of 8 µg/mL (≈ 19.2 µM) and an IC50 [3] of 6.3 nM.

`CCn1cc(-c2cccc(OC)c2)c2c(OC)cc(Cc3cnc(N)nc3N)cc21` [Example 17b, 5-[1-Ethyl-4-methoxy-3-(3-methoxy-phenyl)-1H-indol-6-ylmethyl]-pyrimidine-2,4-diamine] showed an MIC [1, 4] of 0.5 µg/mL (≈ 1.24 µM), an MIC [2, 5] of 8 µg/mL (≈ 19.8 µM) and an IC50 [3] of 4.3 nM.
